According to patent EP4470536A1, “COMPOUND FOR USE IN TREATING FIBRODYSPLASIA OSSIFICANS PROGRESSIVA (FOP)” (Queen's University At Kingston, priority 2023, dated 2024):

How the values were obtained:
[1] = biological target: T1, CYP26B1 (Homo sapiens, UniProt Q9NR63); test: HeLa cell-based inhibitor assay (HeLa-CYP26B1), inhibition of all trans-RA metabolism; settings: CYP26B1 cells; [3H]-RA, 3 hours at 37 °C; Figure 1
T1 sequence (Q9NR63 1-512): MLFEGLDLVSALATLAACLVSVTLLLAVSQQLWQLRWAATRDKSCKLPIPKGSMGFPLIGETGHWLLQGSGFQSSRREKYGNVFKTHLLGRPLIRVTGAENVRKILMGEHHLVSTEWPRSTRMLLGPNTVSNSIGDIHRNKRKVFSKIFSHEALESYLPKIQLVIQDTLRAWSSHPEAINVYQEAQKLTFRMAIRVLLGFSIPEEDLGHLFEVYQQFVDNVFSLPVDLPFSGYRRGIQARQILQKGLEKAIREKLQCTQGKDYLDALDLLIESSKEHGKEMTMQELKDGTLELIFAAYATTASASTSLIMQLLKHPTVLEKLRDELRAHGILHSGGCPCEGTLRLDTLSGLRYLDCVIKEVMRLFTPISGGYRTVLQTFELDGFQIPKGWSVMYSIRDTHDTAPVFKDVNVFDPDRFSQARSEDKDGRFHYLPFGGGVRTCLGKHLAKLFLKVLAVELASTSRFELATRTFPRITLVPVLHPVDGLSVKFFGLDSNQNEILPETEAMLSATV
Description: (§1) CYP26A1 or CYP26B1 cDNA stably transfected HeLa cells were maintained in Minimum Essential Medium (MEM) containing 10% fetal bovine serum (FBS), 1X antibiotic/antimycotic cocktail, and […] hygromycin. Exponentially growing cells were harvested by incubation in trypsin. Cells were then collected and re-plated in 48-well culture plates at 1.5×10^5 (CYP26A1) or 1.5×10^4 (CYP26B1) cells in 0.2 mL of culture medium containing 0.04µCi [^3H]-RA (retinoic acid) in the presence or absence of increasing concentrations of a test compound. The test compound was diluted in dimethyl sulfoxide (DMSO) and then added in duplicate to wells to 0.01 nM, 0.1 nM, 1 nM, 10 nM, 100 nM, 1 µM, and 10 µM final concentrations. Cells were incubated for 3 hours at 37 °C. Retinoids were then extracted using the procedure of Bligh, et al., (1959), Canadian Journal of Biochemistry 37, 911-917, which was modified by using dichloromethane instead of chloroform. Each sample's water-soluble radioactivity level was quantified using a β-scintillation counter (using Ecolume scintillation fluid, available from MP Biomedicals of Solon, OH, USA). IC50 values represented the concentration of inhibitor required to inhibit all trans-RA metabolism by 50%, and were derived from log transformed data.

[2] = biological target: T2, CYP26A1 (Homo sapiens, UniProt O43174); test: HeLa cell-based inhibitor assay (HeLa-CYP26A1), inhibition of all trans-RA metabolism; settings: CYP26A1 cells, highest concentration tested (10 µM), Figure 2, read-out: percentage inhibition
T2 construct: expressed in transfected cells; host or cells: HeLa (stably transfected, hygromycin selection)
T2 sequence (O43174 1-497): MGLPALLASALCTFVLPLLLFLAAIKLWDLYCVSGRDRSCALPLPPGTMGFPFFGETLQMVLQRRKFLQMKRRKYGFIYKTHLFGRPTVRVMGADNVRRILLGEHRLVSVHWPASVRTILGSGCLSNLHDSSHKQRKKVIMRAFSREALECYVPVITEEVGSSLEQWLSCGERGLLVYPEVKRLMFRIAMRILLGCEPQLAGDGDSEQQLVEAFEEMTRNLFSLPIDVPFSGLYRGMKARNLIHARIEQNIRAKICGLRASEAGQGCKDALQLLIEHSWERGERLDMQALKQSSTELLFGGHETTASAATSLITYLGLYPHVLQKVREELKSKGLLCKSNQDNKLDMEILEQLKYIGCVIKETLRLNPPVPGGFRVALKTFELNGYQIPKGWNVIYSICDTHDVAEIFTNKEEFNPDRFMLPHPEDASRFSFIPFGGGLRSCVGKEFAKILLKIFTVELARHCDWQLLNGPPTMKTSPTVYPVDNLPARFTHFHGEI
Description: as §1

[3] = biological target: T1, CYP26B1; test: Microsome-based inhibitor assay (microsomes from CYP26B1-transfected HeLa cells); assay type: biochemical; settings: 5µg microsomal fraction, 1mM NADPH, 1 hour at 37°C; Figure 3
Description: This assay used cell-free microsomes to measure the ability of a test compound to inhibit the metabolism of RA. Microsomal fractions were obtained from CYP26B1 cDNA stably transfected HeLa cells by differential centrifugation of cell lysates. Assays were carried out in 48-well plates containing 5µg of microsomal fraction in Microsome Assay Buffer, containing 0.04µCi [^3H]-RA in the presence of increasing concentrations of a test compound, as described above for the HeLa cell-based assay. Reactions were initiated by addition of 1mM NADPH, and carried out for 1 hour at 37°C. Reactions were stopped, retinoids extracted, and data were collected and analyzed as described above for the HeLa cell-based assay.

[4] = biological target: T1, CYP26B1; test: U2OS cell-based inhibitor assay (endogenous CYP26B1); parameters: This assay used a human cell type endogenously expressing the CYP26B1 enzyme; endogenous in cells; host or cells: U2OS, pre-treated with 1 µM RA for 24 hours; settings: U2OS cells pre-treated with 1 µM RA for 24 hours; Figure 4
Description: This assay used a human cell type endogenously expressing the CYP26B1 enzyme to test the ability of a compound to block RA metabolism. U2OS cells were grown in McCoy's 5A medium containing 10% fetal bovine serum (FBS) and 1X antibiotic/antimycotic cocktail. Cells grown in a T-175 culture flask at […] were treated with 1 µM RA for 24 hours to induce the expression of the CYP26B1 gene prior to the assay. Following this treatment period, cells were collected by trypsinization, washed twice in PBS, and resuspended in 7 ml of fresh culture medium. These cells were then re-plated in 48-well plates, and the assay was carried out as described for the HeLa-cell based assay.

`CC(C)(C)c1cccc(-c2cc3cc(/C=C/C(=O)O)ccc3[nH]2)c1` [Compound 1, (E)-3-(2-(3-(tert-butyl)phenyl)-1H-indol-5-yl)acrylic acid] showed an IC50 [1] of 12.7 nM, an inhibition at 10 µM [2] of 33% and an IC50 [3] of 5.9 nM. The IC50 [4] was 1.9 nM.
